From patent US20120030841A1, “Isoxazoline compounds for combating invertebrate pests” (BASF SE, priority 2009, published 2012)

Experiments:
Type in all cases: in vivo
[1] = system: green peach aphid (Myzus persicae); assay: Green peach aphid systemic test, artificial diet under membrane, 96-well plates; settings: 72 h, adult aphids on treated artificial diet, 3 days, read-out: mortality in comparison with untreated controls
Procedure: (§1) The test solution was prepared the day it was used and in general at concentrations of […] (wt/vol).
For evaluating control of green peach aphid (Myzus persicae) through systemic means the test unit consisted of 96-well-microtiter plates containing liquid artificial diet under an artificial membrane.
The compounds were formulated using a solution containing 75% v/v water and 25% v/v DMSO. Different concentrations of formulated compounds were pipetted into the aphid diet, using a custom built pipetter, at two replications.
After application, 5-8 adult aphids were placed on the artificial membrane inside the microtiter plate wells. The aphids were then allowed to suck on the treated aphid diet and incubated at about 23±1° C. and about 50±5% relative humidity for 3 days. Aphid mortality and fecundity was then visually assessed.

[2] = system: boll weevil (Anthonomus grandis); assay: Boll weevil egg/larval test on insect diet, 24-well plates; settings: 120 h, sprayed onto insect diet, egg and larval mortality, 5 days, read-out: mortality in comparison with untreated controls
Procedure: as §1
For evaluating control of boll weevil (Anthonomus grandis) the test unit consisted of 24-well-microtiter plates containing an insect diet and 20-30 A. grandis eggs.
The compounds were formulated using a solution containing 75% v/v water and 25% v/v DMSO. Different concentrations of formulated compounds were sprayed onto the insect diet at 20 μl, using a custom built micro atomizer, at two replications.
After application, microtiter plates were incubated at about 23±1° C. and about 50±5% relative humidity for 5 days. Egg and larval mortality was then visually assessed.

[3] = system: southern armyworm (Spodoptera eridania); assay: Southern armyworm foliar spray test on lima bean plants; settings: 96 h, armyworm larvae, 4 days after treatment, read-out: mortality in comparison with untreated controls
Procedure: as §1
The active compounds were formulated in cyclohexanone as a 10,000 ppm solution supplied in tubes. The tubes were inserted into an automated electrostatic sprayer equipped with an atomizing nozzle and they served as stock solutions for which lower dilutions were made in 50% acetone:50% water (v/v). A nonionic surfactant (Kinetic®) was included in the solution at a volume of 0.01% (v/v).
Lima bean plants (variety Sieva) were grown 2 plants to a pot and selected for treatment at the 1St true leaf stage. Test solutions were sprayed onto the foliage by an automated electrostatic plant sprayer equipped with an atomizing spray nozzle. The plants were dried in the sprayer fume hood and then removed from the sprayer. Each pot was placed into perforated plastic bags with a zip closure. About 10 to 11 armyworm larvae were placed into the bag and the bags zipped closed. Test plants were maintained in a growth room at about 25° C. and about 20-40% relative humidity for 4 days, avoiding direct exposure to fluorescent light (24 hour photoperiod) to prevent trapping of heat inside the bags. Mortality and reduced feeding were assessed 4 days after treatment, compared to untreated control plants.

[4] = system: Mediterranean fruitfly (Ceratitis capitata); assay: Mediterranean fruitfly egg/larval test on insect diet, microtiter plates; settings: 120 h, sprayed onto insect diet, egg and larval mortality, 5 days, read-out: mortality in comparison with untreated controls
Procedure: as §1
For evaluating control of Mediterranean fruitfly (Ceratitis capitata) the test unit consisted of microtiter plates containing an insect diet and 50-80 C. capitata eggs.
(§2) The compounds were formulated using a solution containing 75% v/v water and 25% v/v DMSO. Different concentrations of formulated compounds were sprayed onto the insect diet at 5 μl, using a custom built micro atomizer, at two replications. After application, microtiter plates were incubated at about 28±1° C. and about 80±5% relative humidity for 5 days. Egg and larval mortality was then visually assessed.

[5] = system: tobacco budworm (Heliothis virescens); assay: Tobacco budworm egg/larval test on insect diet, 96-well plates; settings: 120 h, sprayed onto insect diet, egg and larval mortality, 5 days, read-out: mortality in comparison with untreated controls
Procedure: as §1
as §2, with “For evaluating control of tobacco budworm (Heliothis virescens) the test unit consisted of 96-well-microtiter plates containing an insect diet and 15-25 H. virescens eggs. The” for “The”, “at 10” for “at 5”

FC(F)(F)C1(c2cc(Cl)cc(Cl)c2)CC(c2ccnc3c(Br)cccc23)=NO1 (centres unmarked) [Compound 1-1, 8-bromo-4-[5-(3,5-dichloro-phenyl)-5-trifluoromethyl-4,5-di-hydroisoxazol-3-yl]-quinoline]
> 75%: mortality at 2500 ppm [1] | mortality at 2500 ppm [2] | mortality at 300 ppm [3] | mortality at 2500 ppm [4] | mortality at 2500 ppm [5]

N#Cc1cccc2c(C3=NOC(c4cc(Cl)cc(Cl)c4)(C(F)(F)F)C3)ccnc12 (centres unmarked) [Compound 1-2, 4-[5-(3,5-dichloro-phenyl)-5-trifluoromethyl-4,5-di-hydroisoxazol-3-yl]-quinoline-8-carbonitrile]
> 75%: mortality at 2500 ppm [2] | mortality at 300 ppm [3] | mortality at 2500 ppm [4] | mortality at 2500 ppm [5]

COC(=O)c1cccc2c(C3=NOC(c4cc(Cl)cc(Cl)c4)(C(F)(F)F)C3)ccnc12 (centres unmarked) [Compound 1-3, 4-[5-(3,5-dichloro-phenyl)-5-trifluoromethyl-4,5-di-hydroisoxazol-3-yl]-quinoline-8-carboxylic acid methyl ester]
> 75%: mortality at 2500 ppm [2] | mortality at 2500 ppm [4]
